Measurements: article PMC11887451, “Leveraging Immunogenic Cell Death to Enhance the Immune Response against Malignant Pleural Mesothelioma Tumors” (Journal of the American Chemical Society, 2025)

How the values were obtained:
[1] = tested on: murine malignant mesothelioma cell line AB12; test: MTT cytotoxicity assay, 72 h, AB12; assay type: cell-based, mouse; conditions: exposure time 72 h
Description: (§1) Human malignant mesothelioma cancer cell lines JU77 and LO68 were obtained from Cell Bank Australia (Children's Medical Research Institute, Westmead, Australia). Mouse malignant mesothelioma cancer cell line AB12, human nonmalignant mesothelioma cancer cell line Met5A (mesothelial cells), mouse macrophage cell line J774 and human monocytic cell line THP-1 were obtained from American Type Culture Collection (ATCC) (Rockville, MD, USA). Human malignant mesothelioma cell lines VMC23 (epithelial), Meso82 (sarcomatous), Meso92 (biphasic), were kindly provided by Prof. Walter Berger (Medical University of Vienna). All cells except for J774 were cultured in RPMI and J774 cells were cultured in DMEM. Both types of media were supplemented with 10% FBS and 1% penicillin-streptomycin (10,000 U/mL). Cells were grown in tissue culture flasks (75 cm2 and 25 cm2, SPL Life Sciences Co., Ltd., Korea). All cell lines were grown at 37 °C in a humidified atmosphere of 95% air and 5% CO 2 and passaged when they reached 80–90% confluency. All Au stock solutions were prepared in 1% DMSO in the respected medium, ensuring that cell viability was not inhibited.
(§2) The cytotoxicity of compounds was determined using an MTT colorimetric test. The cells were harvested from culture flasks by trypsinization and seeded into Cellstar 96 -well microculture plates (Greiner Bio -One) at the seeding density of 6000 cells per well (6 × 10^4 cells/mL). After
(§3) the cells were allowed to resume exponential growth for 16 h, they were exposed to drugs at
(§4) different concentrations in media for 72 h. The drugs were diluted in a complete medium at the desired concentration added to each well (100 μL) and serially diluted in other wells. After exposure for 72 h, the media was replaced with MTT in media (5 mg/mL, 100 μL/well) and
(§5) incubated for an additional 50 min. Subsequently, the medium was aspirated, and the purple formazan crystals formed in viable cells were dissolved in DMSO (100 μL/well). Optical densities were measured at 570 nm using a BioTek Synergy H1 microplate and MultiskanTM SkyHigh plate readers. The quantity of viable cells was expressed in terms of treated/control (T/C) values in comparison to untreated control cells, and 50% inhibitory concentrations (IC 50) were calculated from concentration-effect curves by interpolation. An evaluation was based on means from at least three independent experiments, each comprising three replicat es per

[2] = tested on: patient-derived Meso92 cell line (biphasic MPM); test: MTT cytotoxicity assay, 72 h, Meso92; assay type: cell-based, human; conditions: exposure time 72 h
Description: Cell lines and culture conditions
Mouse malignant mesothelioma cancer cell line AB12, human nonmalignant mesothelioma cancer cell line Met5A (mesothelial cells), mouse macrophage cell line J774 and human monocytic cell line THP-1 were obtained from American Type Culture Collection (ATCC) (Rockville, MD, USA). Human malignant mesothelioma cell lines VMC23 (epithelial), Meso82 (sarcomatous), Meso92 (biphasic), were kindly provided by Prof. Walter Berger (Medical University of Vienna). All cells except for J774 were cultured in RPMI and J774 cells were cultured in DMEM. Both types of media were supplemented with 10% FBS and 1% penicillin-streptomycin (10,000 U/mL). Cells were grown in tissue culture flasks (75 cm2 and 25 cm2, SPL Life Sciences Co., Ltd., Korea). All cell lines were grown at 37 °C in a humidified atmosphere of 95% air and 5% CO 2 and passaged when they reached 80–90% confluency. All Au stock solutions were prepared in 1% DMSO in the respected medium, ensuring that cell viability was not inhibited. The Au concentration in the stock solutions was confirmed through inductively coupled plasma optical emission spectrometry. The stock solution of pemetrexed (10 mM) was prepared in Milli -Q water.
Inhibition of c ell viability assay
as §2, §3, §4, §5

[3] = tested on: patient-derived VMC23 cell line (epithelioid MPM); test: MTT cytotoxicity assay, 72 h, VMC23; assay type: cell-based, human; conditions: exposure time 72 h
[4] = tested on: human malignant mesothelioma cell line LO68; test: MTT cytotoxicity assay, 72 h, LO68; assay type: cell-based; conditions: exposure time 72 h
Description: as §1, §2, §3, §4, §5

[5] = tested on: human malignant mesothelioma cell line JU77; test: MTT cytotoxicity assay, 72 h, JU77; assay type: cell-based; conditions: exposure time 72 h
Description: as §1, §2, §3, §4, §5

[6] = tested on: patient-derived Meso84 cell line (sarcomatoid MPM); test: MTT cytotoxicity assay, 72 h, Meso84; assay type: cell-based, human; conditions: exposure time 72 h
Description: as §1, §2, §3, §4, §5

[7] = tested on: human nonmalignant mesothelioma cell line Met5A; test: MTT cytotoxicity assay, 72 h, Met5A; assay type: cell-based; conditions: exposure time 72 h
[8] = tested on: AB12 cells phagocytosed by J774 macrophages; test: Phagocytosis assay, flow cytometry; assay type: cell-based, mouse; conditions: AB12 treated 100 min at 5 × IC50 (72 h), 16 h with J774 macrophages
Procedure: page 21: incubated for an additional 50 min. Subsequently, the medium was aspirated, and the purple formazan crystals formed in viable cells were dissolved in DMSO (100 μL/well). Optical densities were measured at 570 nm using a BioTek Synergy H1 microplate and MultiskanTM SkyHigh plate readers. The quantity of viable cells was expressed in terms of treated/control (T/C) values in comparison to untreated control cells, and 50% inhibitory concentrations (IC 50) were calculated from concentration-effect curves by interpolation. An evaluation was based on means from at least three independent experiments, each comprising three […] concentration level. For macrophage analyses, the acute monocytic leukemia -derived THP-1 cell line (ATCC) was used as a model. 1 × 104 THP-1 cells were seeded per well in 96-well plates in RPMI-1640 with 10% FCS and treated for 24 h with 75 nM phorbol 12-myristate 13-acetate (PMA, Sigma- Aldrich) to induce M0 macrophage differentiation. After the differentiation period, PMA was replaced by fresh culture medium to recover for 2h. Afterwards increasing concentrations of 1G, 5A, 5B and 5G were added for a 72-h continuous drug exposure assay. In parallel, the […] were allowed to attach for 24 h. Gold compounds were added to the cells as described for the THP-1 model above. After the incubation period of 72 h, cell viability was determined by an MTT-based assay (EU4U, Biomedica) following the instructions of the manufacturer. DMSO had not impact on the cell viability at the concentrations used. Flow cytometry experiments Phagocytosis assay […] with RPMI, centrifuged (300 × g, 5 min) and labelled with CellTracker Red CMTPX Dye (0.72 μM for 5 × 10^5 cells) at 37°C for 30 minutes in 1 ml of serum -free RPMI. Following S21 page 22: centrifugation of the cells (300 × g, 5 min), 5 ml of fresh RPMI was introduced, and the cells were seeded at a density of 5 x 10^5 cells per well into Cellstar 6-well plates (Greiner Bio-One) (1 ml per well). J774 macrophages (70-80% confluence in a T75 flask) were detached by scraping, centrifuged (300 × g, 5 min). The medium was substituted with 1 ml of DMEM containing CellTracker Green CMFDA (1 μM) and the J774 macrophages were stained at 37°C for 30 minutes. Following centrifugation of the J774 macrophages (300 × g, 5 min), 5 ml of fresh DMEM was introduced, and the macrophages were seeded into a 100 cm2 petri dish (SPL Life Sciences, Korea). After 24 h, the media in AB12 cells was replaced with 1 ml of fresh […] for 100 minutes. After removing the drug-containing media, the cells were trypsinized (0.5 ml), neutralized with 1 ml of RPMI, centrifuged (300 × g, 5 min) and counted. From each sample, […] cells into 6-well plates. AB12 cells and J774 macrophages were co-incubated for 16 h at 37°C and 5% CO2, detached by scraping, centrifuged (300 × g, 5 min), and the pellets were resuspended in PBS for immediate analysis using a CytoFLEX Flow Cytometer (Beckman Coulter, USA). The percentage of phagocytosis was determined by calculating the number of double-positive macrophages (Q2) over the total number of macrophages (Q2 + Q3). […] Annexin V/PI assay AB12 cells were seeded into Cellstar 6-well plates (Greiner Bio-One) at a density of 5 × 10^5 cells/well (1 ml per well). […] The medium was removed and cells were washed with PBS (2 × 1 mL). Afterwards the cells were […] S22

| Structure (SMILES) | IC50 [1] | IC50 [2] | IC50 [3] | IC50 [4] | IC50 [5] | IC50 [6] | IC50 [7] | phagocytosis / ICD response (in words) [8] | IC50 ([1]; Mus musculus) | IC50 ([2]; Homo sapiens) | IC50 ([3]; Homo sapiens) | IC50 ([4]; Homo sapiens) | IC50 ([5]; Homo sapiens) | IC50 ([6]; Homo sapiens) | IC50 ([7]; Homo sapiens, MeT-5A) |
| --- | --- | --- | --- | --- | --- | --- | --- | --- | --- | --- | --- | --- | --- | --- | --- |
| F[P-](F)(F)(F)(F)F.c1cc[c]2c(c1)Nc1cccc[n+]1[Au-]21[S]C(=[N+]2CCCCCC2)[S]1 (stereo not shown) [5G] | 330 ± 90 nM | 350 ± 40 nM | 730 ± 160 nM | 430 ± 50 nM | 220 ± 40 nM | 300 ± 70 nM | 250 ± 50 nM | substantial phagocytosis | – | – | – | – | – | – | – |
| Nc1nc2[nH]cc(CCc3ccc(C(=O)N[C@@H](CCC(=O)O)C(=O)O)cc3)c2c(=O)[nH]1 [Pemetrexed, pemetrexed, reference compound] | – | – | – | – | – | – | – | failed to initiate any ICD response | 23 ± 7 nM | 140 ± 40 nM | 170 ± 40 nM | 94 ± 28 nM | 73 ± 14 nM | 27 ± 2 nM | 300 ± 100 nM |
